Source: US20080227757A1, “Formulation for dermal application” (priority 2005, published 2008)

How the values were obtained:
[1] = Octanol-water distribution coefficient (log P), lipophily
Method: The lipophily value P gives low lipophility at a low value of the logarithm of P (log P), and a high value of the log P gives high lipophily. The distribution coefficient P is measured at pH 7.4 and 21° C. in octanol water.

[2] = Permeation of active ingredient from formulations through isolated human Stratum corneum (modified Franz cell); details: active ingredient in the inventive formulation
Method: To determine the permeation of an active ingredient from the inventive formulation compared to conventional formulations containing active ingredients pharmaceutical preparations containing 5-aminolevulinic acid were tested in vitro on isolated human skin.
Human Stratum corneum, originating from biopsies of plastic operations, was used as isolated human skin. Following the biopsy subcutaneous fat was removed and the skin was frozen in liquid nitrogen, then stored at −25° C. After gradual thawing the Stratum corneum was isolated by trypsination on filter paper, and impregnated with an aqueous 2% trypsin solution. After incubation at 37° C. for 24 h the Stratum corneum could be lifted off, incubated in a 0.01% aqueous solution trypsin inhibitor and then washed several times in water. This isolated horny layer was dried and stored at room temperature in the desiccator. For permeation examinations a modified Franz cell was used, the compartments of which were separated off through the Stratum corneum. Pretreatment of the Stratum corneum is done by total hydration in water and placement on a polycarbonate filter (Isopor membrane filter, type TMTP, 5.0 μm, Millipore) to boost mechanical stability. The donor compartment was filled with inventive or respectively comparative formulation containing 5-aminolevulinic acid, whereby 5-aminolevulinic acid at 10% by weight was contained in the formulations.
The preparation containing 5-aminolevulinic acid, procurable according to Example 2, was tested for permeation as inventive preparation, as compared to a formulation with conventional cream base according to the German Pharmacopoeia (70 parts water, 30 parts hydrophilic salve from 30 parts emulsifying cetylstearyl alcohol (type A), 35 parts viscid paraffin and 35 parts soft Vaseline), and in comparison to a formulation in dolgit microgel (5% by weight ibuprofen, in 2-propanol, dimethyl isosorbide, poloxamer, medium-chain triglycerides, lavender oil, neroli oil and water).
After application the quantity of active ingredient permeated through the skin was measured.

## CCCCOC(=O)CCC(=O)CN [5-ALA-butylester, 5-aminolevulinic acid butyl ester]
[1]; octanol/water, pH 7.4
  logP: 1.42

## CCCCCCCCOC(=O)CCC(=O)CN [5-ALA-octylester]
[1]; octanol water, pH 7.4, 21° C.
  log P: 2.6199

## CC(=O)OCC(=O)[C@@]1(O)CC[C@H]2[C@@H]3CCC4=CC(=O)CC[C@]4(C)[C@H]3[C@@H](O)C[C@@]21C [hydrocortisone acetate]
[2]
  permeation of the active ingredient from the inventive formulation through the human Stratum corneum: improvement in permeation
[1]; pH 7.4
  logP: 2.18

## Clc1ccccc1C(c1ccccc1)(c1ccccc1)n1ccnc1 [clotrimazole]
[2]
  permeation of the active ingredient from the inventive formulation through the human Stratum corneum: improvement in permeation
[1]; pH 7.4
  logP: 4.1

## NCC(=O)CCC(=O)O [Example 5-ALA, 5-aminolevulinic acid]
[1]; octanol/water, pH 7.4
  logP: -1.52

## CCOC(=O)CCC(=O)CN [5-ALA-ethylester]
[1]; octanol water, pH 7.4, 21° C.
  log P: 0.8411

## CCCCCCOC(=O)CCC(=O)CN [5-ALA-hexylester]
[1]; octanol water, pH 7.4, 21° C.
  log P: 1.839

## CN(C/C=C/C#CC(C)(C)C)Cc1cccc2ccccc12 [terbinafine]
[2]
  permeation of the active ingredient from the inventive formulation through the human Stratum corneum: improvement in permeation
[1]; octanol/water, pH 7.4
  logP: 3.3

## NCC(=O)CCC(=O)OC1CCCCC1 [5-ALA-cyclohexylester]
[1]; octanol water, pH 7.4, 21° C.
  log P: 1.494

## COC(=O)CCC(=O)CN [5-ALA-methylester, methyl ester of 5-aminolevulinic acid]
[1]; pH 7.4
  log P: −0.9423

## CC(=O)Oc1ccccc1C(=O)O [acetylsalicylic acid]
[2]
  permeation of the active ingredient from the inventive formulation through the human Stratum corneum: improvement in permeation
[1]; octanol/water, pH 7.4
  logP: -1.15
